Results as given in PubChem BioAssay (NCI).
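Assay format: 96-well plates, 48-hour exposure. The concentration for 50% growth inhibition is given as GI50. TGI denotes the concentration required for complete inhibition of growth.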

Tests used:
Assay in all cases: growth of human tumour cells (NCI), 48 h
[1] = tested on: DLD-1 colon
[2] = tested on: DMS 273 small cell lung
[3] = tested on: DU-145 prostate
[4] = tested on: HS 578T breast
[5] = tested on: LXFL 529 NSCLC
[6] = tested on: M14 melanoma
[7] = tested on: M19-MEL melanoma
[8] = tested on: NCI-H522 lung
[9] = tested on: PC-3 prostate
[10] = tested on: T-47D breast
[11] = tested on: XF 498 CNS
[12] = tested on: DMS 114 small cell lung
[13] = tested on: HOP-18 NSCLC
[14] = tested on: LOX IMVI melanoma
[15] = tested on: 786-0 renal
[16] = tested on: SNB-78 CNS

SMILES | TGI [1] [µM] | TGI [2] [µM] | GI50 [3] [µM] | GI50 [4] [µM] | TGI [4] [µM] | TGI [5] [µM] | TGI [6] [µM] | TGI [7] [µM] | GI50 [8] [µM] | TGI [8] [µM] | GI50 [9] [µM] | TGI [10] [µM] | TGI [11] [µM] | TGI [12] [µM] | TGI [13] [µM] | TGI [14] [µM] | TGI [15] [µM] | TGI [3] [µM] | TGI [9] [µM] | TGI [16] [µM]
COc1cc2c(cc1O)CCN[C@@]21CS[C@H]2c3c(OC(C)=O)c(C)c4c(c3C(COC1=O)N1C2C2c3c(cc(C)c(OC)c3O)CC([C@@H]1O)N2C)OCO4 (stereo partly drawn) | 0.0013 | < 1e-06 | 0.00462 | 0.00279 | 0.0137 | 4.31e-05 | 0.00473 | < 1e-06 | 0.000953 | 0.00273 | 0.00429 | > 1 | < 1e-06 | – | – | – | – | – | – | –
C#CCCCCC#CC1CCCC1C1=CC(=O)c2ccccc21 (stereo not drawn) | 24.3 | 11.9 | – | – | – | – | 17 | – | – | 22 | – | – | 20.8 | 6.97 | 25 | 13.9 | – | – | – | –
CN(C)CCNc1ccc2nnn3c4ccc(Cl)cc4c(=O)c1c23 | 27.7 | – | – | – | 13.5 | 19.2 | 16.7 | 15.1 | – | 17.5 | – | 49.2 | 23.8 | – | – | 9.66 | 15.6 | 26.2 | 13.6 | 34.9
COc1cc2c(cc1OC)C(C1(O)CCCCC1)NCC2 (stereo not drawn) | > 100 | > 100 | – | – | – | > 100 | > 100 | > 100 | – | – | – | – | > 100 | – | – | > 100 | – | – | – | –
C[n+]1ccccc1/C=C/c1ccc2c(c1)OCO2 | – | – | – | – | > 10 | – | > 10 | – | – | > 10 | – | > 10 | – | – | – | > 10 | > 10 | > 10 | > 10 | –
N=c1nc(N)nc(N)n1-c1ccc(S(N)(=O)=O)cc1 | – | – | – | – | – | – | > 100 | – | – | > 100 | – | > 100 | – | – | – | > 100 | > 100 | > 100 | > 100 | –
CCCNCC(O)/C=C/[Si](C)(C)C (stereo not drawn) (tested in a mixture with another compound) | > 100 | – | – | – | – | > 100 | > 100 | > 100 | – | > 100 | – | – | 74.8 | > 100 | > 100 | > 100 | – | – | – | > 100
O=C(N/N=C/c1cc(Br)cc(Br)c1[O-])c1ccccc1O.O=C(N/N=C/c1cc(Br)cc(Br)c1[O-])c1ccccc1O.[Cl-].[Fe+3] | – | – | – | – | – | – | 9.96 | – | – | 4.56 | – | – | – | – | – | 15.5 | – | – | – | –
Oc1ccc2ccccc2c1N=Nc1ccc(N=Nc2ccccc2)cc1 | – | – | – | – | > 100 | – | > 100 | – | – | > 100 | – | > 100 | – | – | – | > 100 | > 100 | > 100 | > 100 | –
Cc1c(Cl)c(S(N)(=O)=O)cc(S(N)(=O)=O)c1NC(=O)c1ccc(Cl)cc1 | – | – | – | – | > 100 | – | > 100 | – | – | > 100 | – | > 100 | – | – | – | > 100 | > 100 | > 100 | > 100 | –
CCCCCCc1ccc(O)cc1O | > 100 | > 100 | – | – | – | – | – | 98 | – | > 100 | – | – | > 100 | – | > 92.5 | > 100 | – | – | – | > 100
C/C=C1/CN2CC[C@@H]3c4ccccc4N4[C@H](C(=O)OC)[C@H]1C[C@H]2[C@]34/C=C/C1=COC[C@@H]2[C@H]1C[C@H]1c3c(c4ccccc4n3C)C[C@@H]2N1C | – | – | – | – | 8.93 | – | 7.9 | – | – | – | – | 8.68 | – | – | – | 8.74 | – | 11.9 | 6.09 | –
C=C(/C=C/C=C(/CCC=C(C)C)COC(C)=O)[C@@H]1CC[C@]2([C@H](CCCO)/C(=C(/C)C=O)CC[C@]2(C)O)[C@@H]1O | 30.4 | 21.1 | – | – | – | – | 23.5 | 33.3 | – | 32.6 | – | – | – | 28.8 | 23.7 | 27.4 | – | – | – | –
Nc1nc(SCCC/C=C/B(O)O)nc2c1ncn2C1OC(CO)C(O)C1O (stereo not drawn) | > 243 | > 243 | – | – | – | > 243 | > 243 | > 243 | – | > 243 | – | – | > 243 | – | – | > 243 | – | – | – | > 243
NC(Cc1ccc2oc3cc(=O)c4ccccc4c-3nc2c1)C(=O)O (stereo not drawn) | > 66.6 | > 60.1 | – | – | 59.6 | > 100 | 30.1 | – | – | 77.7 | – | > 84.7 | – | 41.1 | 77.7 | 44.1 | > 100 | 32 | > 100 | > 100
Cc1nnc2sc(-c3ccc(N)cc3)nn12 | – | – | – | – | > 100 | – | > 100 | – | – | > 100 | – | > 100 | – | – | – | – | > 100 | > 100 | > 100 | –
CCOC(=O)C1=C(C)N(Cc2ccc(Cl)cc2Cl)C2(O)C(OC)CC(=O)C3C(=O)N(c4ccccc4)C(=O)C132 (stereo not drawn) | – | – | – | – | 92.8 | – | 13.5 | – | – | 7.56 | – | 2.57 | – | – | – | 2.23 | 4.11 | 2.75 | 15.1 | –
CN[C@@H]1[C@H](O)[C@H](NC)[C@H]2O[C@@]3(O)C(=O)C[C@@H](C)O[C@H]3O[C@@H]2[C@H]1O | – | – | – | – | > 100 | – | > 100 | – | – | > 100 | – | > 100 | – | – | – | > 100 | – | > 100 | > 100 | –
O=S(=O)(O)c1cc(O)c2c(O)c(N=Nc3ccc(/C=C/c4ccc(N=Nc5c(S(=O)(=O)O)cc6cc(S(=O)(=O)O)cc(O)c6c5O)cc4S(=O)(=O)O)c(S(=O)(=O)O)c3)c(S(=O)(=O)O)cc2c1 | > 100 | > 100 | – | – | – | > 100 | > 100 | > 100 | – | > 100 | – | – | > 100 | > 100 | > 100 | > 100 | > 100 | – | – | –
CC(=O)O[C@H]1CC[C@]2(C)[C@H]3C(=O)C=C4[C@@H]5C[C@](C)(C(=O)N6CCCNCC6)CC[C@]5(C)CC[C@@]4(C)[C@]3(C)CC[C@H]2C1(C)C | – | – | 1.71 | 2.13 | 4.69 | – | – | – | 1.68 | 3.42 | – | – | – | – | – | – | – | 3.15 | – | –
N=C(N)SC1c2ccccc2-c2cc([N+](=O)[O-])ccc21 (stereo not drawn) | – | – | – | – | 12.2 | – | 17.7 | – | – | 6.47 | – | 16.2 | – | – | – | 22.1 | 14.9 | 15.9 | 13.8 | –
CCOC(=O)C1=C(C)N2CCCOC2(C)C(C(=O)OC)C1c1cccc([N+](=O)[O-])c1 (stereo not drawn) | – | – | – | – | – | > 100 | > 100 | > 100 | – | – | – | – | – | > 100 | – | – | – | – | – | –
CC1(C)[C@@H]2C[C@H]1C(Cc1ccccc1C[C@H]1c3cc(-c4ccccn4)ncc3[C@H]3C[C@@H]1C3(C)C)c1cc(-c3ccccn3)ncc12 (stereo partly drawn) | – | – | – | – | > 100 | – | – | – | – | > 22 | – | 3.6 | – | – | – | 1.48 | – | > 37.9 | – | –
O=[N+]([O-])/C=C/c1cccc(F)c1 | – | – | – | – | 9.18 | – | 10.7 | – | – | 26.9 | – | 72.5 | – | – | – | > 100 | – | 21.6 | 11.9 | –
